Data as given in patent publication US10717749B2, “Macrocyclic sulfondiimine compounds” (BAYER PHARMA AKTIENGESELLSCHAFT, priority 2015, dated 2020).

What was measured:
rat hepatocytes = assay: In vitro metabolic stability in rat hepatocytes; format: in vitro ADME; conditions: 1 μM
Method: Caco-2 cells (purchased from DSMZ Braunschweig, Germany) were seeded at a density of 4.5×10^4 cells per well on 24 well insert plates, 0.4 µm pore size, and grown for 15 days in DMEM medium supplemented with 10% fetal bovine serum, 1% GlutaMAX (100×, GIBCO), 100 U/mL penicillin, 100 μg/mL streptomycin (GIBCO) and 1% non essential amino acids (100×). Cells were maintained at 37° C. in a humified 5% CO2 atmosphere. Medium was changed every 2-3 day. Before running the permeation assay, the culture medium was replaced by a FCS-free hepes-carbonate transport buffer (pH 7.2). For assessment of monolayer integrity the transepithelial electrical resistance (TEER) was measured. Test compounds were predissolved in DMSO and added either to the apical or basolateral compartment in final concentration of 2 μM in transport buffer. Before and after 2 h incubation at 37° C. samples were taken from both compartments. Analysis of compound content was done after precipitation with methanol by LC/MS/MS analysis. Permeability (Papp) was calculated in the apical to basolateral (A→B) and basolateral to apical (B→A) directions. The apparent permeability was calculated using following equation: Papp=(Vr/Po)(1/S)(P2/t) Where Vr is the volume of medium in the receiver chamber, Po is the measured peak area or height of the test drug in the donor chamber at t=o, S the surface area of the monolayer, P2 is the measured peak area of the test drug in the acceptor chamber after 2 h of incubation, and t is the incubation time. The efflux ratio basolateral (B) to apical (A) was calculated by dividing the Papp B-A by the Papp A-B. In addition the compound recovery was calculated. 6. Investigation of In Vitro Metabolic Stability in Rat Hepatocytes
Hepatocytes from Han Wistar rats were isolated via a 2-step perfusion method. After perfusion, the liver was carefully removed from the rat: the liver capsule was opened and the hepatocytes were gently shaken out into a Petri dish with ice-cold Williams medium E (purchased from Sigma Aldrich Life Science, St Louis, Mo.). The resulting cell suspension was filtered through sterile gaze in 50 ml falcon tubes and centrifuged at 50×g for 3 min at room temperature. The cell pellet was resuspended in 30 ml WME and centrifuged through a Percoll® gradient for 2 times at 100×g. […] Cell viability was determined by trypan blue exclusion. […] Samples were frozen at −20° C. over night, after subsequently centrifuged for 15 minutes at 3000 rpm and the supernatant was analyzed with an Agilent 1200 HPLC-system with LCMS/MS detection.
The half-life of a test compound was determined from the concentration-time plot. From the half-life the intrinsic clearances were calculated.

[1] = In vivo pharmacokinetics in rats; conditions: male, Wistar, rat, plasma, iv; i.v. bolus dosing to rats; read-out: t1/2: terminal half-life (converted)
Method: 7. In Vivo Pharmacokinetics in Rats
For in vivo pharmacokinetic experiments test compounds were administered to male Wistar rats intravenously at doses of 0.3 to 1 mg/kg formulated as solutions using either rat plasma or solubilizers such as PEG400 in well-tolerated amounts.
For pharmacokinetics after intravenous administration test compounds were given as i.v. bolus and blood samples were taken at 2 min, 8 min, 15 min, 30 min, 45 min, 1 h, 2 h, 4 h, 6 h, 8 h and 24 h after dosing. […] Blood was collected into Lithium-Heparin tubes (Monovetten®, Sarstedt) and centrifuged for 15 min at 3000 rpm. An aliquot of 100 μL from the supernatant (plasma) was taken and precipitated by addition of 400 μL ice cold acetonitrile and frozen at −20° C. over night. Samples were subsequently thawed and centrifuged at 3000 rpm, 4° C. for 20 minutes. Aliquots of the supernatants were taken for analytical testing using an Agilent 1200 HPLC-system with LCMS/MS detection. PK parameters were calculated by non-compartmental analysis using a PK calculation software. […]

HeLa-MaTu-ADR = assay: Proliferation assay, crystal violet; format: cell-based; conditions: Homo sapiens, 96 h, 4 days, read-out: Inhibition of HeLa-MaTu-ADR cell proliferation IC50
Method: Cultivated tumour cells (HeLa, human cervical tumour cells, ATCC CCL-2; NCI—H460, human non-small cell lung carcinoma cells, ATCC HTB-177; DU 145, hormone-independent human prostate carcinoma cells, ATCC HTB-81; HeLa-MaTu-ADR, multidrug-resistant human cervical carcinoma cells, EPO-GmbH Berlin; Caco-2, human colorectal carcinoma cells, ATCC HTB-37; B16F10, mouse melanoma cells, ATCC CRL-6475) were plated at a density of 3,500 cells/well (DU145), 3,000 cells/well (HeLa-MaTu-ADR), 1,500 cells/well (NCI—H460), 3,000 cells/well (HeLa), 2,000 cells/well (Caco-2), or 1,000 cells/well (B16F10) in a 96-well multititer plate in 150 μL of their respective growth medium supplemented 10% fetal calf serum. After 24 hours, the cells of one plate (zero-point plate) were stained with crystal violet (see below), the test substances were added in various concentrations (0 μM, as well as in the range of 0.0001-10 μM) employing HP Dispenser. The cells were incubated for 4 days in the presence of test substances. Cell proliferation was determined by staining the cells with crystal violet: the cells were fixed by adding 20 μl/measuring point of an 11% glutaric aldehyde solution for 15 minutes at room temperature. After three washing cycles of the fixed cells with water, the plates were dried at room temperature. The cells were stained by adding 100 μl/measuring point of a 0.1% crystal violet solution DU 145, Caco-2, HeLa (pH 4.5) B16F10, NCI—H460, HeLa-MaTu-ADR. After three washing cycles of the stained cells with water, the plates were dried at room temperature. The dye was dissolved by adding 100 μl per measuring point of a 10% acetic acid solution. The extinction was determined by photometry at a wavelength of 595/550/620 nm depending on the intensity of coloration, usually at 595 nm. The change of cell number, in percent, was calculated by normalization of the measured values to the extinction values of the zero-point plate (=0%) and the extinction of the untreated (0 μM) cells (=100%). The IC50 values (inhibitory concentration at 50% of maximal effect) were determined by means of a 4 parameter fit.

| maximal calculated oral bioavailability (Fmax) based on stability data in rat hepatocytes (rat hepatocytes) [%] | half-life [1] [h] | IC50 (HeLa-MaTu-ADR) [nM] | Compound |
| --- | --- | --- | --- |
| 58 |  |  | CS(=N)(Cc1cc2nc(c1)OCCCOc1cc(F)ccc1-c1cc(ncc1F)N2)=NCCCO (racemic) [Example 2, (rac)-3-(2-{[15,19-difluoro-3,4-dihydro-2H,11H-10,6-(azeno)-12,16-(metheno)-1,5,11,13-benzodioxadiazacyclooctadecin-8-yl]methyl}-2-methyl-2λ^6-diazathia-1,2-dien-1-yl)propan-1-ol] |
| 46 |  |  | CN=S(C)(=N)Cc1cc2cc(c1)OCCCCOc1cc(F)ccc1-c1nc(ncc1F)N2 (racemic) [Example 10, (rac)-9-[(N,S-dimethylsulfonodiimidoyl)methyl]-16,20-difluoro-2,3,4,5-tetrahydro-12H-13,17-(azeno)-11,7-(metheno)-1,6,12,14-benzodioxadiazacyclononadecine] |
| 76 | 3.4 | 7.8 | CS(=N)(=N)Cc1cc2nc(c1)OCCCOc1cc(F)ccc1-c1cc(ncc1F)N2 [Example 1, 15,19-difluoro-8-[(S-methylsulfonodiimidoyl)methyl]-3,4-dihydro-2H,11H-10,6-(azeno)-12,16-(metheno)-1,5,11,13-benzodioxadiazacyclooctadecine] |
| 93 | 6.9 |  | CS(=N)(=N)Cc1cc2cc(c1)OCCCCOc1cc(F)ccc1-c1nc(ncc1F)N2 [Example 5, 16,20-difluoro-9-[(S-methylsulfonodiimidoyl)methyl]-2,3,4,5-tetrahydro-12H-13,17-(azeno)-11,7-(metheno)-1,6,12,14-benzodioxadiazacyclononadecine] |
